Here are results for three compounds from patent publication US20110034472A1, “Novel Compounds for Treatment of Cancer and Disorders Associated With Angiogenesis Function” (UNIVERSITY OF SOUTHERN CALIFORNIA, priority 2004, published 2011).

Molecules are shown by their SMILES. “Also recorded” adds a separate entry of the source.

Data set [1] deals with PC3 xenografts. The experiment in a line: PC3 human prostate cancer xenograft in athymic nude mice. The class given is in vivo. The method, then: FIG. 20. (A) is a schematic outline of tumor growth and dosing in PC3 mice xenografts. […] Athymic nude mice implanted with PC3 cells were treated with the indicated concentration of SC21 through daily i.p. administration for 5 d. Tumor growth was monitored for 5 wks. Values represent the tumor weight (mean±SD) for each group. (C) depicts dose-response to SC21 in the PC3 xenograft. Values represent the % T/C from each treatment group on the last day of measurement (after 5 wks); bars,±SD.
Fifty male athymic nude (nu/nu) mice (Charles River Laboratories, Wilmington, Mass.) were used for in vivo testing. The animals were fed ad libitum and kept in air conditioned rooms at 20±2° C. with a 12-hour light-dark period. Animal care and manipulation were in agreement with the University of Southern California Institutional Guidelines, which are in accordance with the Guidelines for the Care and Use of Laboratory Animals.
PC3 cells from in vitro cell culture were inoculated s.c. in both flanks of athymic nude mice (2×10^6 cells/flank) under aseptic conditions. Tumor growth was assessed by biweekly measurement of tumor diameters with a Vernier caliper (length×width). Tumor weight was calculated according to the formula: TW (mg)=tumor volume (mm^3)=d^2×D/2, where d and D are the shortest and longest diameters, respectively. Cells were allowed to grow to an average volume of 100 mm^3. Animals were then randomly assigned for control and treatment groups, to receive control vehicle or SC21 (0.3 and 3 mg/kg, dissolved in isotonic saline solution) via i.p. injections once a day for 5 days. Treatment of each animal was based on individual body weight. After 5 days of treatment, the tumor volumes in each group were measured […]. Treated animals were checked daily for treatment toxicity/mortality. The percentage of tumor growth inhibition was calculated as % T/C=100× (mean TW of treated group/mean TW of control group).
The in vivo efficacy of SC21 was evaluated in nude mice inoculated with human prostate PC3 cells. Animals were treated with daily i.p. injections of saline (controls) and SC21 at 0.3 or 3 mg/kg. After 5 days of dosing, the drug treatment was discontinued and the animals were monitored biweekly for 5 weeks.

Data set [2] deals with HEY cells. In words: Cell cycle analysis (propidium iodide), SC21, HEY. The class given is cell-based, human. The conditions noted are these: 72 hours. The method, then: (§1) FIG. 17 depicts flow cytometric analysis of the cell cycle profiles of DU145, PC3, MDA-MB-435, and HEY cells treated with SC21. […] SC21 induced a G0/G1 phase arrest in DU145 and MDA-MB-435 cells and S phase arrest in PC3 and HEY cells.
(§2) Cell cycle perturbations induced by SC21 and camptothecin (CPT) were analyzed by propidium iodide DNA staining. Briefly, exponentially growing PC3 and DU145 cells were treated with different doses of the drug for 24, 48, and 72 hours. At the end of each treatment time, cells were collected and washed with PBS after a gentle centrifugation at 200×g for 5 minutes. Cells were thoroughly resuspended in 0.5 mL of PBS and fixed in 70% ethanol for at least 2 hours at 4° C. Ethanol-suspended cells were then centrifuged at 200×g for 5 minutes and washed twice in PBS to remove residual ethanol. For cell cycle analysis, the pellets were suspended in 1 mL of PBS containing 0.02 mg/mL of propidiumiodide, 0.5 mg/mL of DNase-free RNase A and 0.1% of Triton X-100 and incubated at 37° C. for 30 minutes. Cell cycle profiles were obtained using a FACScan flowcytometer (Becton Dickinson, San Jose, Calif.) and data were analyzed by ModFit LT software (Verity Software House, Inc., Topsham, Me.).
(§3) It was noteworthy that SC21 induced S phase arrest in PC3 and HEY cell lines (FIG. 17).

Data set [3] relates to PC3 cells. In words: Cell cycle analysis (propidium iodide), SC21, PC3. It is filed as cell-based, human. Conditions: 72 hours. As to the method:
as §1, §2, §3

Data set [4] relates to T24 cells. The experiment in a line: Two-dimensional gel electrophoresis proteomic analysis, SC23. The class given is cell-based, human. Conditions: 2D gel spots, SC23 treatment. The method, then: Cells were treated for 12, 24, 48 and 72 hr with SC23 (IC80 dose). The soluble fraction was then extracted and quantified. […] of protein was loaded in the first dimension gel at 800 V for 16 h. Gels were then equilibrated, separated on a 12% SDS-PAGE gel for the second dimension, stained with CyproRuby, and imaged by Typhoon 9100.
SC23-Treated Cells Upregulate a Variety of Proteins in the Molecular Weight Range of 8-58 kDa. […] 2DE was then used to separate these proteins (FIG. 29). As above, treatment with SC23 led to a significant up-regulation of many proteins. Similar analysis was carried out for DU145 cells treated with SC23.
Proteins identified from the spots shown in FIG. 30 are 3-tubulin, myc promoter-binding protein (MPB-1), retinoblastoma-binding protein 7, vimentin, enolase, phosphopyruvate hydratase beta, mitochondrial ATP synthase beta chain.
Among the several spots that were at least 4-fold overexpressed was β-tubulin, which is related to the top three genes identified from our microarray analysis as described above.

In data set [5] the test system is UACC-257 melanoma cells. In words: Sensitivity of various cancer cells to SC144, UACC-257. It is filed as cell-based. The conditions noted are these: Homo sapiens. The text has this: (§4) The studies were expanded to other cell lines. […] Subnanomolar to low nanomolar potency was also observed in HCT-116 and HT29 colon cancer cell lines (Table 2).
The subject of data set [6] is SKOV3 ovarian cancer cells. In words: Sensitivity of various cancer cells to SC144, SKOV3. The conditions noted are these: Homo sapiens, SK-OV-3. It is filed as cell-based.
Text: as §4

Data set [7] deals with MCF-7/ADR breast cancer cells. The experiment in a line: MTT cytotoxicity assay, MCF-7/ADR. The class given is cell-based. Conditions: Homo sapiens, NCI/ADR-RES, read-out: CC50 values (mean ± SD). As to the method:
The sensitivity of a panel of seven human cancer cell lines to SC144 was assessed by MTT-assay. […] The sensitivity towards SC144 was time- and dose-dependent.
(In general: Tetrazolium dyes change colour on reduction, which living cells bring about.)

Data set [8] deals with SF-295 CNS cancer cells. The experiment in a line: Sensitivity of various cancer cells to SC144, SF-295. The class given is cell-based. The conditions noted are these: Homo sapiens.
Text: as §4

Data set [9] has as its system HT29 colon cancer cells. The experiment in a line: Sensitivity of various cancer cells to SC144, HT29. The class given is cell-based. The conditions noted are these: Homo sapiens, HT-29.
Text: as §4

The test system of data set [10] is SF-268 CNS cancer cells. The experiment in a line: Sensitivity of various cancer cells to SC144, SF-268. It is filed as cell-based. The conditions noted are these: Homo sapiens.
Text: as §4

Where [11] appears, read: 0.3 or 3 mg/kg daily i.p. for 5 days.

For orientation: CC50 means the concentration that lowers cell viability or growth by half.

On to `O=C(NNC(=O)c1ccccc1O)C1=CC2C=CC=CC2C=C1O` (stereo not shown) [SC21], for which the “average weight of mice” value was 32.1 ± 1.92 g in [1] (0.3 mg/kg of SC21) and 33.3 ± 1.89 g in data set [1] (3.0 mg/kg of SC21). In addition, the “tolerability, drug-related deaths, body weight” value in data set [1] (setting [11]) was “well-tolerated and did not result in any drug-related deaths and changes in body weight”. Also, in [1] (setting [11]), the “tumor burden / tumor growth” value was “significantly reduced tumor burden; also recorded: Significant reduction in tumor growth”. Besides, the entries for the “accumulation in S phase” value in data set [2] and in data set [3] were 69% and 52%, respectively.

Take `O=C(NNC(O)c1cc2ccccc2cc1O)c1cc2ccccc2cc1O` (stereo not shown) [SC23]: the β-tubulin protein overexpression result in [4] is recorded as “at least 4 fold”.

As to `O=C(NNc1nc2cc(F)ccc2n2cccc12)c1cnccn1` [SC144, Pyrazine-2-carboxylic acid N′-(7-fluoro-pyrrolo[1,2-a]quinoxalin-4-yl)-hydrazide], the CC50 in data set [5] was determined as 400 nM; in data set [6], 120 nM; in data set [7] it was 2500 ± 1000 nM; in data set [8] it was 420 nM; in data set [9], 78 nM; in [10] it was 300 nM.
